# Measurements reported in patent US7875638B2, “Synthesis of epothilones, intermediates thereto, analogues and uses thereof” (Sloan-Kettering Institute for Cancer Research, priority 2002, dated 2011).
# “Also recorded” adds a separate entry of the source. Read-outs that look alike come from different tables or passages of the source. Marks after values point to notes of the source that are not given here.
# Tests used:
# [1] = system: primary CD138 MM cells; assay: Apoptosis of primary myeloma cells; assay type: cell-based, human; settings: cells obtained from patient marrow
# [2] = system: OPM-2 myeloma cells; assay: Cell cycle analysis (propidium iodide DNA staining), OPM-2; assay type: cell-based, human
# Text: FIG. 95 is cell cycle analysis as determined by Propidium iodide DNA staining. […] The two drugs induced the same patter of cell cycle arrest.
# [3] = system: CCRF-CEM
# Description: Cytotoxicity Assays. In preparation for in vitro cytotoxicity assays, cells were cultured at an initial density 2-5×10^4 cells per milliliter. […] For both methods, the absorbance of each well was measured with a microplate reader (Power Wave XS, Bio-Tek, Winooski, Vt.).
# A typical experiment involves culturing cells (e.g., CCRF-CEM) at an initial density of 2-5×10^4 cells per ml. […] For cells that were grown in suspension (such as CCRF-CEM and its sublines), cytotoxicitiy is measured by using the 2,-3-bis(2-methoxy-4-nitro-5-sulfophenyl)-5 carboxanilide)-2H terazodium hydroxide (XTT)-microculture tetrazonium method in duplicate in 96-well microtiter plates. For both methods, the absorbance of each well is measured with a microplate reader (EL-340, Bio-Tek, Burlington, Vt.). Each run entails six or seven concentrations of the tested drugs. Dose-effect relationship data are analyzed with the median-effect plot.
# Cytotoxicity Assays: In preparation for in vitro cytotoxicity assays, cells were cultured at an initial density 2-5×10^4 cells per milliliter. […] For both methods, the absorbance of each well was measured with a microplate reader (Power Wave XS, Bio-Tek, Winooski, Vt.).
# [4] = system: MOLP-5; assay: XTT cell growth inhibition, MOLP-5; assay type: cell-based; settings: Homo sapiens; Myeloma; XTT tetrazonium assay; read-out: IC50 (nM), MOLP-5
# [5] = system: human mammary carcinoma MX-1 xenograft; assay: MX-1 xenograft in nude mice; settings: for Body weight on the 16th day after treatment, % of the pretreatment control: Q2Dx6
# [6] = system: CAG myeloma cell lines; assay: Annexin V staining, CAG; assay type: cell-based, human; settings: 24 hours treatment
# Text: In early apoptotic cells, the membrane phospholipids phosphatidylserine (PS) is translocated from the inner to the outer leaflet of the plasma membrane, thereby exposing PS to the external cellular environment. Annexin V is a 35-36 kD Ca^2+ dependent phospholipids-binding protein that has a high affinity for PS, and binds to cells with exposed PS. In conjunction with a vital dye such as 7-amino-actinomycin (7-AAD) staining dead cells, this assay allows to identify early apoptotic cells. […] Note that X-axis is Annexin staining and Y-axis is 7-AAD staining.
# [7] = system: RPMI8226; assay: XTT cell growth inhibition, RPMI8226; assay type: cell-based; settings: Homo sapiens, RPMI-8226; Myeloma; XTT tetrazonium assay; read-out: IC50 (nM), RPMI8226
# [8] = system: RPMI8226 myeloma cell lines; assay: Cell cycle analysis (propidium iodide DNA staining), RPMI8226; assay type: cell-based, human; settings: 31.25 nM
# Text: RPMI8226 myeloma cell lines were used.
# [9] = system: HCT-116; assay: XTT cell growth inhibition, HCT-116; assay type: cell-based; settings: Homo sapiens, HCT-116; Colon Ca; XTT tetrazonium assay; read-out: IC50 (nM), HCT-116
# [10] = system: Ovcar-4; assay: XTT cell growth inhibition, Ovcar-4; assay type: cell-based; settings: Homo sapiens, OVCAR-4; Ovarian Ca; XTT tetrazonium assay; read-out: IC50 (nM), Ovcar-4
# [11] = system: CAG myeloma cells; assay: Disseminated CAG xenograft myeloma mice; settings: 20 mg/kg
# Description: 10×10^6 CAG myeloma cells engineered with Luc-eGFP-TK fusion gene were injected intravenously into the mouse-tail vein, and the treatment was started when decent myeloma cells implantation was detected by bioluminescence imaging on day 7.
# [12] = system: CAG myeloma cell lines; assay: Cell cycle analysis (propidium iodide DNA staining), CAG; assay type: cell-based, human; settings: 31.25 nM
# Text: CAG myeloma cell lines were used.
# [13] = system: human xenografts in nude mice, such as MX-1; set-up: Relative therapuetic index at MTD: key to the marks not given beside the values
# [14] = in vitro; settings: human, s9
# Description: Stability of epothilones in mouse and in human liver S9 fraction. The stability study was carried out with a fully automated HPLC system which consisted of a Prospekt-2 (Spark Holland, Netherlands) sample preparation system and an Agilent 1100 HPLC system. Briefly, the Prospekt 2 picked up a C8 extraction cartridge and washed it with acetonitrile and water. The Agilent autosampler, set at 37° C., picked up 20 μl of the sample, loaded it onto the cartridge, washed it with water, then the Prospekt-2 diverted the mobile phase stream through the extraction cartridge onto the analytical column, Reliance Stable Bond C8 4×80 mm with guard column (MacMod, Chadds Ford, Pa.) and the eluent was monitored at 250 nm. […] Sample preparation involved the addition of equal volumes of plasma to PBS for a total volume of 300-400 μl, filtered, and the addition of 0.5-2 μl of the substrate (20 mM) to achieve about 30-50 mAU at 250 nm in the HPLC analysis. For pooled human liver microsome S9 fraction (Xeno Tech, Lenex, Kans.), 20 μl (400 μg) or S9 fraction was mixed with 280 μl of PBS then proceeded as above. The sampling period was controlled by the autosampler and peak area data were collected to compare the rate of disappearance of the parent compound.
# Stability of epothilones in mouse and in human liver S9 fraction: The stability study was carried out with a fully automated HPLC system which consisted of a Prospekt-2 (Spark Holland, Netherlands) sample preparation system and an Agilent 1100 HPLC system. Briefly, the Prospekt 2 picked up a C8 extraction cartridge and washed it with acetonitrile and water. The Agilent autosampler, set at 37° C., picked up 20 μl of the sample, loaded it onto the cartridge, washed it with water, then the Prospekt-2 diverted the mobile phase stream through the extraction cartridge onto the analytical column, Reliance Stable Bond C8 4×80 mm with guard column (MacMod, Chadds Ford, Pa.) and the eluent was monitored at 250 nm. […] Sample preparation involves the addition of equal volumes of plasma to PBS for a total volume of 400 μl, filtered, and the addition of 0.5-2 μl of the substrate (20 mM) to achieve about 30-50 mAU at 250 nm in the HPLC analysis. For pooled human liver microsome S9 fraction (Xeno Tech, Lenex, Kans.), 20 μl (400 μg) or S9 fraction was mixed with 280 μl of PBS then proceeds as above. The sampling period was controlled by the autosampler and peak area data were collected to compare the rate of disappearance of the parent compound.
# [15] = system: H929; assay: XTT cell growth inhibition, H929; assay type: cell-based; settings: Homo sapiens, NCI-H929; Myeloma; XTT tetrazonium assay; read-out: IC50 (nM), H929
# [16] = system: Human CD34+ stem cells; assay: Apoptosis and 2 weeks progenitor assays on CD34+ stem cells; assay type: cell-based; settings: 24 hours incubation, umbilical cord blood CD34+
# Description: Then drugs were washed out and annexin V staining was performed. Solid area represents vehicle control and open area represents drug treated group. There is no obvious increased apoptosis of non-cycling human CD34+ cells with short period of exposure to epothilones.
# Drug cytotoxicity to hematopoietic stem cells is always a major concern. Human CD34+ stem cells were isolated from umbilical cord blood and incubated with either dEpoB or Fludelone alone for 24 hours. After washing out the drugs, apoptosis assays and 2 weeks progenitor assays were performed to evaluate the influence of epothilone to stem cells.
# [17] = system: RPMI-8226 (human multiple myeloma cell line); assay: Global gene expression (Affymetrix chip AU133 2.0); assay type: cell-based; settings: 6 h
structure (smiles),measurement,setting,value
"C/C(=C\c1csc(C)n1)[C@@H]1C/C=C(/C(F)(F)F)C/C=C/[C@H](C)[C@H](O)[C@@H](C)C(=O)C(C)(C)[C@@H](O)CC(=O)O1 [Compound 29, 26-trifluoro-trans-9,10-dehydro-12,13-desoxyepothilone B]",Tumor apoptosis within 24 hrs,[1],induced tumor apoptosis within 24 hrs
same,Cell cycle arrest,[2],arrested in G2M phase starting from 6 hours and absolutely blocked at 24 hours
same,"Attenuation of cytotoxicity by the three fluorine atoms at C26, factor",[3],≤ 4
same,IC50,[3]; human,0.0032 ± 0.0003 µM
same,Cytotoxicity relative to the benchmark compound dEpoB,[3]; in the cell,~1.8 fold
same,IC50,"[3]; read-out: IC50 (μM), CCRF-CEM, XTT assay following 72 h inhibition, Table 1-2",0.0035 µM
same,IC50,"[3]; read-out: IC50, CCRF-CEM(C), XTT assay following 72 h inhibition, Table 1-3",0.0035 µM
same,IC50,[4],14.4 ± 2.6 nM
same,Body weight gain during the last three doses,"[5]; 10 mg/kg, Q2DX12",6%
same,Maximal body weight decrease,"[5]; 10 mg/kg, Q2DX12",12%
same,Tumor free after Q2Dx6 6 hr-iv. infusion (mice),[5]; 20 mg/kg,four out of four
same,Therapeutic outcome in MX-1 xenograft model,"[5]; 20 mg/kg and 30 mg/kg, Q2Dx6, 6 hour infusions",curative
same,Time for body weight to return to pretreatment control level after suspension of treatment,"[5]; 20 mg/kg or 30 mg/kg Q2Dx6, i.v.-6 hr infusion",12 to 18 days
same,"Body weight on the 16th day after treatment, % of the pretreatment control",[5]; 20 mg/kg,109%
same,Reappearance of the tumor on the 20th day after stopping treatment,"[5]; 20 mg/kg, Q2Dx6, 6 hour infusion",no reappearance
same,Tumor reappearance on 27th day after stopping treatment (mice),"[5]; 20 mg/kg, Q2Dx6, 6 hr iv infusion",2 out of 4
same,Tumor reappearance on 27th day after stopping treatment (mice),"[5]; 20 mg/kg, Q2Dx6, 6 hr iv infusion, listed as 26-trifluoro-9,10-dehydro-12,13-dexoxy-epothilone B",2/4
same,Transient drop in body weight,"[5]; 20 mg/kg, Q2Dx6, 6 hr. iv infusion",up to 26%
same,Decrease in body weight without lethality,[5]; 30 mg/kg,27%
same,"Body weight on the 16th day after treatment, % of the pretreatment control",[5]; 30 mg/kg,98%
same,Tumor disappearance earlier than the 20 mg/kg dosage,"[5]; 30 mg/kg, Q2Dx6, 6 hour iv infusion",2 to 3 days
same,Relapse after suspension of treatment,"[5]; 30 mg/kg, Q2Dx6, 6 hr iv infusion",absence of any relapse for over two months
same,Maximal tolerated dose,"[5]; Q2Dx6, 6 hour infusions",~30 mg/kg
same,Cell kill,[5]; assuming a tumor doubling time of 4 days,> 8.5 log
same,Tumor relapse after cessation of treatment,"[5]; extra large MX-1, 25 mg/kg Q3Dx5 then Q3Dx4",No relapse was observed on D180
same,Relapse (49 days after stopping treatment),"[5]; female nude mice, large MX-1, 30 mg/kg orally",no relapse on D115
same,Tumor disappearance,"[5]; female nude mice, large MX-1, 30 mg/kg orally Q2Dx7 then Q2Dx9","All three mice's tumor disappeared on D40, 45 and 48"
same,Doses required for MX-1 tumor disappearance,"[5]; mouse, in vivo",nine
same,Duration of MX-1 tumor disappearance,"[5]; mouse, in vivo",64 days
same,Mice relapsed on day 10 after suspension of treatment,"[5]; mouse, in vivo",0/4
same,"Mouse tumors disappeared, large MX-1 tumors (0.5 g)","[5]; mouse, in vivo",4/4
same,Relapse after suspension of treatment,"[5]; mouse, in vivo",no relapse after 62 days
same,Tumor disappeared during the resting period (mice),"[5]; mouse, in vivo",2 out of 5
same,Tumor free after Q2Dx6 6 hr-iv. infusion (mice),"[5]; mouse, in vivo",4/4
same,Tumor reappeared on day 10 after administration (mice),"[5]; mouse, in vivo",0/4^[b]
same,Tumor relapse after cessation of treatment,"[5]; mouse, in vivo",no tumor relapse in all 5 animals on D165
same,Tumor shrinkage during the resting period of 9 days (D34-D43),"[5]; mouse, in vivo",> 99.3%
same,Tumor shrinkage,"[5]; mouse, in vivo, iv, 25 mg/kg",> 97.4%
same,Tumor disappearance (mice),"[5]; mouse, in vivo, po, 30 mg/kg",2 out of 4
same,Tumor disappearance after additional two doses (mice),"[5]; mouse, in vivo, po, 30 mg/kg",4 out of 4
same,Tumor free following the cessation of treatment,"[5]; mouse, in vivo, listed as 26-trifluoro-9,10-trans-dehdyro-epothilone D",3.8 months
same,Tumor free following the cessation of treatment,"[5]; mouse, in vivo, listed as Fludelone",4.3 months
same,Apoptosis (Annexin V / 7-AAD),[6],majority of cells either enter apoptosis or are dead
same,IC50,[7],7.6 ± 1.2 nM
same,Cell cycle arrest,[8],absolutely blocked cell cycle at G2M phase
same,IC50,[9],3.6 ± 1.3 nM
same,IC50,[10],1.8 ± 0.7 nM
same,Survival after transplanting CAG cells (Kaplan-Meier),[11],> 80 days
same,Survival versus controls,[11]; intraperitoneal,at least doubled the survival time than controls
same,Tumor burden by bioluminescence imaging,[11]; listed as Fludelone,significant decreased tumor photon emissions; also recorded: significantly decreased tumor burden
same,Cell cycle arrest,[12],absolutely blocked cell cycle at G2M phase
same,Maximal b.w. % drop without death,"[13]; mouse, in vivo",33%
same,Relative therapuetic index at MTD,"[13]; mouse, in vivo",+++++
same,Curative therapeutic dose range,"[13]; mouse, in vivo, iv",10 to 30 mg/kg
same,Optimal dose for i.v. infusion,"[13]; mouse, in vivo, iv",20 to 30 mg/kg
same,Therapeutic dose regimen for Q2D 6 hr-iv infusion,"[13]; mouse, in vivo, iv",10 to 30 mg/kg
same,Optimal dose for the oral administration,[13]; oral,"20 mg/kg, QD or 30 mg/kg Q2D"
same,half-life,[14],630 ± 138 min
same,IC50,[15],9.2 ± 1.9 nM
same,Toxicity on non-cycling stem cells,[16],no significant toxicity
same,"Fold change in expression, APP",[17],+2.14 fold
same,"Fold change in expression, BASP1",[17],+2.83 fold
same,"Fold change in expression, HIST1",[17],−2.00 fold
same,"Fold change in expression, HNRPD",[17],−2.46 fold
same,"Fold change in expression, JUN",[17],+3.25 fold
same,"Fold change in expression, SKIL",[17],+2.83 fold
same,"Fold change in expression, SUV39 H2",[17],−2.00 fold
same,"Fold change, AIM2",[17],−2.64 fold
same,"Fold change, BCL3",[17],+3.25 fold
same,"Fold change, CA4",[17],−2.14 fold
same,"Fold change, HLA-II DPα",[17],−3.73 fold
same,"Fold change, Heme oxygenase",[17],+2.30 fold
same,"Fold change, PTPL",[17],−2.46 fold
